Measurements published in PubChem BioAssay AID1259407 (Chemical Carcinogenesis Research Information System (CCRIS), 2018).
The source made the active and inactive calls. The rule behind the calls is not given here.

Tested on: CCRIS mutagenicity, Ames/micronucleus/aberration tests
Assay: CCRIS mutagenicity studies
[1] = Test System: AMES SALMONELLA TYPHIMURIUM, Strain/Indicator: TA102, Metabolic Activation: NONE, Method: PREINCUBATION
[2] = Test System: AMES SALMONELLA TYPHIMURIUM, Strain/Indicator: TA98, Metabolic Activation: NONE, Method: STANDARD PLATE
[3] = Test System: AMES SALMONELLA TYPHIMURIUM, Strain/Indicator: TA98, Metabolic Activation: S-9, Method: STANDARD PLATE
[4] = Test System: AMES SALMONELLA TYPHIMURIUM, Strain/Indicator: TA100, Metabolic Activation: NONE, Method: STANDARD PLATE
[5] = Test System: AMES SALMONELLA TYPHIMURIUM, Strain/Indicator: TA100, Metabolic Activation: S-9, Method: STANDARD PLATE
[6] = Test System: AMES SALMONELLA TYPHIMURIUM, Strain/Indicator: TA1535, Metabolic Activation: NONE, Method: STANDARD PLATE
[7] = Test System: AMES SALMONELLA TYPHIMURIUM, Strain/Indicator: TA1537, Metabolic Activation: NONE, Method: STANDARD PLATE
[8] = Test System: AMES SALMONELLA TYPHIMURIUM, Strain/Indicator: TA98, Metabolic Activation: RAT, LIVER, S-9, AROCLOR 1254, Method: STANDARD PLATE
[9] = Test System: AMES SALMONELLA TYPHIMURIUM, Strain/Indicator: TA1538, Metabolic Activation: NONE, Method: STANDARD PLATE

In the case of COc1cc(OC)c(OC)cc1C=O, the mutagenic call (Test System: AMES SALMONELLA TYPHIMURIUM, Strain/Indicator: TA98, Metabolic Activation: HAMSTER, LIVER, S-9, AROCLOR 1254 (10%), Method: PREINCUBATION) is reported as “inactive; negative”, the mutagenic call (Test System: AMES SALMONELLA TYPHIMURIUM, Strain/Indicator: TA98, Metabolic Activation: NONE, Method: PREINCUBATION) is reported as “inactive; negative” and the mutagenic call (Test System: AMES SALMONELLA TYPHIMURIUM, Strain/Indicator: TA98, Metabolic Activation: RAT, LIVER, S-9, AROCLOR 1254 (10%), Method: PREINCUBATION) is reported as “inactive; negative”. For the same compound, the mutagenic call (Test System: AMES SALMONELLA TYPHIMURIUM, Strain/Indicator: TA100, Metabolic Activation: HAMSTER, LIVER, S-9, AROCLOR 1254 (10%), Method: PREINCUBATION) was “inactive; negative”, the mutagenic call (Test System: AMES SALMONELLA TYPHIMURIUM, Strain/Indicator: TA100, Metabolic Activation: NONE, Method: PREINCUBATION) was “inactive; negative” and the mutagenic call (Test System: AMES SALMONELLA TYPHIMURIUM, Strain/Indicator: TA100, Metabolic Activation: RAT LIVER S-9, AROCLOR 1254, Method: PREINCUBATION) was “inactive; negative”. The mutagenic call (Test System: AMES SALMONELLA TYPHIMURIUM, Strain/Indicator: TA100, Metabolic Activation: RAT, LIVER, S-9, AROCLOR 1254 (10%), Method: PREINCUBATION) was “inactive; negative”, the mutagenic call [1] was “inactive; negative” and the mutagenic call (Test System: AMES SALMONELLA TYPHIMURIUM, Strain/Indicator: TA102, Metabolic Activation: RAT LIVER S-9, AROCLOR 1254, Method: PREINCUBATION) was “inactive; negative”. For the same compound, the mutagenic call (Test System: AMES SALMONELLA TYPHIMURIUM, Strain/Indicator: TA104, Metabolic Activation: NONE, Method: PREINCUBATION) was “inactive; negative”, the mutagenic call (Test System: AMES SALMONELLA TYPHIMURIUM, Strain/Indicator: TA104, Metabolic Activation: RAT LIVER S-9, AROCLOR 1254, Method: PREINCUBATION) was “inactive; negative” and the mutagenic call (Test System: AMES SALMONELLA TYPHIMURIUM, Strain/Indicator: TA1535, Metabolic Activation: HAMSTER, LIVER, S-9, AROCLOR 1254 (10%), Method: PREINCUBATION) was “inactive; negative”. The mutagenic call (Test System: AMES SALMONELLA TYPHIMURIUM, Strain/Indicator: TA1535, Metabolic Activation: NONE, Method: PREINCUBATION) was “inactive; negative”, the mutagenic call (Test System: AMES SALMONELLA TYPHIMURIUM, Strain/Indicator: TA1535, Metabolic Activation: RAT, LIVER, S-9, AROCLOR 1254 (10%), Method: PREINCUBATION) was “inactive; negative” and the mutagenic call (Test System: AMES SALMONELLA TYPHIMURIUM, Strain/Indicator: TA1537, Metabolic Activation: HAMSTER, LIVER, S-9, AROCLOR 1254 (10%), Method: PREINCUBATION) was “inactive; negative”. The mutagenic call (Test System: AMES SALMONELLA TYPHIMURIUM, Strain/Indicator: TA1537, Metabolic Activation: NONE, Method: PREINCUBATION) was “inactive; negative”, the mutagenic call (Test System: AMES SALMONELLA TYPHIMURIUM, Strain/Indicator: TA1537, Metabolic Activation: RAT, LIVER, S-9, AROCLOR 1254 (10%), Method: PREINCUBATION) was “inactive; negative” and the mutagenic call (Test System: MOUSE LYMPHOMA, Strain/Indicator: L5178Y (TK+/TK-), Metabolic Activation: RAT, LIVER, S-9, AROCLOR 1254, Method: SUSPENSION/PLATE) was “active; positive. reevaluation of results: equivocal”. The mutagenic call (Test System: Mouse lymphoma, Strain/Indicator: L5178Y (tk+/tk-), Metabolic Activation: None, Method: Suspension/plate) was “inactive; negative”.

O=[N+]([O-])c1cccc2c1-c1ccccc1C2 was tested, and the mutagenic call (End Point: IN VITRO CHROMOSOMAL ABERRATIONS, Test System: CHINESE HAMSTER LUNG (CHL) CELLS, Metabolic Activation: NONE) was “active; positive” and the mutagenic call (End Point: IN VITRO CHROMOSOMAL ABERRATIONS, Test System: CHINESE HAMSTER LUNG (CHL) CELLS, Metabolic Activation: RAT, LIVER, S-9, KC-400) was “active; positive”.

With COC1=C[C@@H]2[C@@H]3Cc4ccc(OC)c(O)c4[C@]2(CCN3C)CC1=O the mutagenic call (Test System: AMES SALMONELLA TYPHIMURIUM, Strain/Indicator: TA98, Metabolic Activation: RAT, LIVER, S-9, PHENOBARBITAL AND BETA-NAPHTHOFLAVONE, Method: PREINCUBATION) was “inactive; negative” and the mutagenic call (Test System: AMES SALMONELLA TYPHIMURIUM, Strain/Indicator: TA100, Metabolic Activation: RAT, LIVER, S-9, PHENOBARBITAL AND BETA-NAPHTHOFLAVONE, Method: PREINCUBATION) was “inactive; negative”.

With O=C(CCl)Nc1snc2cc(Cl)ccc12 the mutagenic call [2] was “inactive; negative”, the mutagenic call [3] was “active; positive” and the mutagenic call [4] was “active; positive”. For the same compound, the mutagenic call [5] was “active; positive”, the mutagenic call [6] was “inactive; negative” and the mutagenic call (Test System: AMES SALMONELLA TYPHIMURIUM, Strain/Indicator: TA1535, Metabolic Activation: S-9, Method: STANDARD PLATE) was “inactive; negative”. For the same compound, the mutagenic call [7] was “active; positive” and the mutagenic call (Test System: AMES SALMONELLA TYPHIMURIUM, Strain/Indicator: TA1537, Metabolic Activation: S-9, Method: STANDARD PLATE) was “active; positive”.

In the case of CC(C(=O)O)c1ccc(Oc2nccs2)cc1 (configuration not stated), the mutagenic call [2] is reported as “inactive; negative”, the mutagenic call [8] is reported as “inactive; negative” and the mutagenic call [4] is reported as “inactive; negative”. For the same compound, the mutagenic call (Test System: AMES SALMONELLA TYPHIMURIUM, Strain/Indicator: TA100, Metabolic Activation: RAT, LIVER, S-9, AROCLOR 1254, Method: STANDARD PLATE) was “inactive; negative”, the mutagenic call [6] was “inactive; negative” and the mutagenic call (Test System: AMES SALMONELLA TYPHIMURIUM, Strain/Indicator: TA1535, Metabolic Activation: RAT, LIVER, S-9, AROCLOR 1254, Method: STANDARD PLATE) was “inactive; negative”. The mutagenic call [7] was “inactive; negative”, the mutagenic call (Test System: AMES SALMONELLA TYPHIMURIUM, Strain/Indicator: TA1537, Metabolic Activation: RAT, LIVER, S-9, AROCLOR 1254, Method: STANDARD PLATE) was “inactive; negative” and the mutagenic call (Test System: E. COLI, Strain/Indicator: WP2, Metabolic Activation: NONE, Method: STANDARD PLATE) was “inactive; negative”. For the same compound, the mutagenic call (Test System: E. COLI, Strain/Indicator: WP2, Metabolic Activation: RAT, LIVER, S-9, AROCLOR 1254, Method: STANDARD PLATE) was “inactive; negative”, the mutagenic call (Test System: E. COLI, Strain/Indicator: WP2 UVRA, Metabolic Activation: NONE, Method: STANDARD PLATE) was “inactive; negative” and the mutagenic call (Test System: E. COLI, Strain/Indicator: WP2 UVRA, Metabolic Activation: RAT, LIVER, S-9, AROCLOR 1254, Method: STANDARD PLATE) was “inactive; negative”.

In the case of N=c1cc2oc3cc(N)ccc3nc-2c2ccccc12, the mutagenic call [9] is reported as “inactive; negative” and the mutagenic call (Test System: AMES SALMONELLA TYPHIMURIUM, Strain/Indicator: TA1538, Metabolic Activation: RAT, LIVER, S-9, AROCLOR 1254, Method: STANDARD PLATE) is reported as “active; positive”.

In the case of COc1cccc(/C=C/c2ccc(N)cc2)c1, the mutagenic call (Test System: AMES SALMONELLA TYPHIMURIUM, Strain/Indicator: TA98(1,8-DNP6), Metabolic Activation: NONE, Method: STANDARD PLATE) is reported as “inactive; negative”, the mutagenic call (Test System: AMES SALMONELLA TYPHIMURIUM, Strain/Indicator: TA98(1,8-DNP6), Metabolic Activation: S-9, Method: STANDARD PLATE) is reported as “active; positive” and the mutagenic call [2] is reported as “active; positive”. For the same compound, the mutagenic call [3] was “active; positive”, the mutagenic call [4] was “inactive; negative” and the mutagenic call [5] was “active; positive”.

In the case of CCCCCC[C@H](C/C=C\CCCCCCCC(=O)OC)OC(C)=O, the mutagenic call (Test System: AMES SALMONELLA TYPHIMURIUM, Strain/Indicator: TA97, Metabolic Activation: NONE, Method: PREINCUBATION) is reported as “inactive; negative”, the mutagenic call (Test System: AMES SALMONELLA TYPHIMURIUM, Strain/Indicator: TA97, Metabolic Activation: RAT, LIVER, S-9, AROCLOR 1254, Method: PREINCUBATION) is reported as “inactive; negative” and the mutagenic call [1] is reported as “inactive; negative”. The mutagenic call (Test System: AMES SALMONELLA TYPHIMURIUM, Strain/Indicator: TA102, Metabolic Activation: RAT, LIVER, S-9, AROCLOR 1254, Method: PREINCUBATION) was “inactive; negative”.

C=CCCCCCCCCC was tested, and the mutagenic call (Test System: AMES SALMONELLA TYPHIMURIUM, Strain/Indicator: TA98, Metabolic Activation: MOUSE, LIVER, S-9, Method: STANDARD PLATE) was “inactive; negative”, the mutagenic call [2] was “inactive; negative” and the mutagenic call (Test System: AMES SALMONELLA TYPHIMURIUM, Strain/Indicator: TA100, Metabolic Activation: MOUSE, LIVER, S-9, Method: STANDARD PLATE) was “inactive; negative”. The mutagenic call [4] was “inactive; negative”, the mutagenic call [6] was “inactive; negative” and the mutagenic call [9] was “inactive; negative”.

CC(=O)Nc1cc2c(cc1OC(=O)c1ccccc1)-c1ccccc1C2 was tested, and the mutagenic call [8] was “inactive; negative”.
